Measurements reported in patent publication US11352396B2, “Antimicrobial peptides and methods of using same” (Zoetis Services LLC, priority 2017, dated 2022).
Residues, ends and D or L forms follow the SMILES beside them.

How the values were obtained:
S. aureus ATCC 29213 = format: cell-based; parameters: key to SA 29213: MIC in μM (lowest conc. with no visible growth); conditions: S. aureus 29213, Table 6
Procedure, shortened: (§1)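 Broth microdilution followed CLSI VET01-S2, with peptides serially diluted to in-assay concentrations of 50 μM to 0.05 μM. A 0.5 McFarland inoculum diluted 1:250 in Mueller-Hinton Broth was incubated with peptide for 18-20 hours. MIC was read visually as the first well without visible growth.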

E. coli ATCC 25922 = format: cell-based; conditions: E. coli 25922, Table 6
Procedure, shortened: as §1

[1] = test system: MSSP (Methicillin-Susceptible Staphylococcus pseudintermedius); assay: MIC against selected strains of MSSP; format: cell-based; parameters: MIC MSSP 49051 / MIC MSSP 81923 / MIC MSSP 84250 / Effect on MSSP 86000 / Effect on MSSP 72036 / Effect on MSSP 78032: unit not given beside the values; Effect on MSSP 71990 / Effect on MSSP 86001 / Effect on MSSP 72191 / Effect on MSSP 76986 / Effect on MSSP 77378 / Effect on MSSP 81923 / Effect on MSSP 84250 / Effect on MSSP 84658: unit: µM; conditions: for SP 49051: S. pseudintermedius 49051, Table 6; for Effect on MSSP 71990: strain 71990, Table 5; for Effect on MSSP 72036: strain 72036, Table 5; for Effect on MSSP 72191: strain 72191, Table 5; for Effect on MSSP 76986: strain 76986, Table 5; for Effect on MSSP 77378: strain 77378, Table 5; for Effect on MSSP 78032: strain 78032, Table 5; for Effect on MSSP 81923: strain 81923, Table 5; for Effect on MSSP 84250: strain 84250, Table 5; for Effect on MSSP 84658: strain 84658, Table 5; for Effect on MSSP 86000: strain 86000, Table 5; for Effect on MSSP 86001: strain 86001, Table 5
Procedure, shortened: (§2)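 MIC read by eye as the first well showing no growth after 18–20 h incubation. Cultures at 0.5 McFarland were diluted 1:250 in Mueller-Hinton broth and exposed to peptide over 50 μM–0.05 μM in the assay, per CLSI VET01-S2 microbroth method.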

[2] = test system: MRSP (Methicillin-Resistant Staphylococcus pseudintermedius); assay: MIC against selected strains of MRSP; format: cell-based; parameters: key to MIC MRSP 72192 / MIC MRSP 76923 / MR 71994 / Mr 88493 / MR 72035 / MR 72192 / MR 76923 / MR 79882 / MR 80279 / MR 81926 / MR 86002 / MR 87665: MIC in μM (visual, first well with no growth); conditions: for MR 71994: MRSP strain 71994, Table 6; for MR 72035: MRSP strain 72035, Table 6; for MR 72192: MRSP strain 72192, Table 6; for MR 76923: MRSP strain 76923, Table 6; for MR 79882: MRSP strain 79882, Table 6; for MR 80279: MRSP strain 80279, Table 6; for MR 81926: MRSP strain 81926, Table 6; for MR 86002: MRSP strain 86002, Table 6; for MR 87665: MRSP strain 87665, Table 6; for Mr 88493: MRSP strain 88493, Table 6
Procedure, shortened: as §2

[3] = test system: Canine-derived epithelial keratinocyte (CPEK) cells; format: cell-based
Procedure, shortened: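 Viability was read by CellTiter-Glo luminescence after overnight exposure (37 °C, 5% CO2) of canine keratinocytes to a peptide range of 50–0.05 μM. Percent effect used phosphate buffer as the zero control and 0.1% Triton X-100 as the full-effect control.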

cRBC = format: cell-based, canine
Procedure, shortened: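 Percent lysis, measured by absorbance at 405 nm, used 1% Triton X-100 as full effect and phosphate buffer as zero. Peptides spanned 50 µM–0.05 µM and were held with plasma-depleted washed erythrocytes at 37 °C for 1 h.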

human red blood cells = assay: Red blood cell hemolysis assay, human; format: cell-based; conditions: compared with SEQ ID NO: 13 (tachyplesin), FIG. 1
Description: (§3) SEQ ID NO: 1 was selected for further research. Toxicity of SEQ ID NO: 1 to eukaryotic blood cells was compared to that of tachyplesin (SEQ ID NO: 13). A standard, well referenced red blood cell hemolysis assay was employed against multiple species to test the lysis potential of the peptides. Red blood cells (RBCs) were prepared and isolated by several centrifuge and wash steps to remove the plasma fraction. A dose titration (50 μM to 0.05 μM) of test peptides and control peptide melittin were spotted from 50 mM stocks in a 384 well plate. Prepared RBCs were incubated with peptide for one hour at 37° C. Percent hemolysis was measured by optical density at 405 nm and utilizing 1% TritonX100 as hundred percent effect (HPE) and phosphate buffer alone as zero percent effect (ZPE).

beagle red blood cells = assay: Red blood cell hemolysis assay, beagle; format: cell-based; conditions: compared with SEQ ID NO: 13 (tachyplesin), FIG. 1
Description: as §3

rat red blood cells = assay: Red blood cell hemolysis assay, rat; format: cell-based; conditions: compared with SEQ ID NO: 13 (tachyplesin), FIG. 1
Description: as §3

mouse red blood cells = assay: Red blood cell hemolysis assay, mouse; format: cell-based; conditions: compared with SEQ ID NO: 13 (tachyplesin)
Description: as §3

bovine red blood cells = assay: Red blood cell hemolysis assay, bovine; format: cell-based; conditions: compared with SEQ ID NO: 13 (tachyplesin)
Description: as §3

## 116 (KWCFYVCYRGICYRRCND; Artificial Antimicrobial peptide) [compound 116]
S. aureus ATCC 29213
  SA 29213: 6.2
E. coli ATCC 25922
  EC 25922: 0.8 µM
[1]
  SP 49051: 1.6
  Effect on MSSP 71990: 1.6
  Effect on MSSP 72036: 1.6
  Effect on MSSP 72191: 1.6
  Effect on MSSP 76986: 1.6
  Effect on MSSP 77378: 1.6
  Effect on MSSP 78032: 1.6
  Effect on MSSP 81923: 1.6
  Effect on MSSP 84250: 1.6
  Effect on MSSP 84658: 1.6
  Effect on MSSP 86000: 1.6
  Effect on MSSP 86001: 1.6
[2]
  MR 71994: 1.6
  MR 72035: 1.6
  MR 72192: 1.6
  MR 76923: 1.6
  MR 79882: 1.6
  MR 80279: 1.6
  MR 81926: 1.6
  MR 86002: 3.1
  MR 87665: 1.6
  Mr 88493: 1.6
[3]
  CPEK (50 μM): 16.0
cRBC
  cRBC (50 μM): 87.0

## 117 (GWCFYVCYRGICYRRCRD; Artificial Antimicrobial peptide) [compound 117]
S. aureus ATCC 29213
  SA 29213: 6.2
E. coli ATCC 25922
  EC 25922: 0.8 µM
[1]
  SP 49051: 1.6
  Effect on MSSP 71990: 1.6
  Effect on MSSP 72036: 1.6
  Effect on MSSP 72191: 1.6
  Effect on MSSP 76986: 0.8
  Effect on MSSP 77378: 0.8
  Effect on MSSP 78032: 1.6
  Effect on MSSP 81923: 1.6
  Effect on MSSP 84250: 1.6
  Effect on MSSP 84658: 1.6
  Effect on MSSP 86000: 1.6
  Effect on MSSP 86001: 1.6
[2]
  MR 71994: 1.6
  MR 72035: 1.6
  MR 72192: 0.8
  MR 76923: 1.6
  MR 79882: 0.8
  MR 80279: 1.6
  MR 81926: 1.6
  MR 86002: 0.8
  MR 87665: 1.6
  Mr 88493: 1.6
[3]
  CPEK (50 μM): 14.7
cRBC
  cRBC (50 μM): 97.8

## CC[C@H](C)[C@H](NC(=O)CNC(=O)[C@H](CCCNC(=N)N)NC(=O)[C@H](Cc1ccc(O)cc1)NC(=O)[C@H](CS)NC(=O)[C@@H](NC(=O)[C@H](CCCNC(=N)N)NC(=O)[C@H](Cc1ccccc1)NC(=O)[C@H](CS)NC(=O)[C@H](Cc1c[nH]c2ccccc12)NC(=O)[C@@H](N)CCCCN)C(C)C)C(=O)N[C@@H](CS)C(=O)N[C@@H](Cc1ccc(O)cc1)C(=O)N[C@@H](CCCNC(=N)N)C(=O)N[C@@H](CCCNC(=N)N)C(=O)N[C@@H](CS)C(=O)N[C@@H](CCCNC(=N)N)C(=O)N[C@@H](CC(=O)O)C(=O)O [SEQ ID NO: 1, KWCFRVCYRGICYRRCRD] (H-KWCFRVCYRGICYRRCRD-OH; N-terminus and C-terminus assumed)
Human red blood cells
  times less toxic than SEQ ID NO: 13, human red blood cells: 2-4 times
Beagle red blood cells
  times less toxic than SEQ ID NO: 13, beagle red blood cells: 2-4 times
Rat red blood cells
  times less toxic than SEQ ID NO: 13, rat red blood cells: 2-4 times
Mouse red blood cells
  difference in toxicity versus SEQ ID NO: 13, mouse red blood cells: negligible
Bovine red blood cells
  difference in toxicity versus SEQ ID NO: 13, bovine red blood cells: negligible
